Reference: ChEMBL document CHEMBL1157402, “Solid-phase total synthesis of cyclic decapeptide phakellistatin 12” (2008)
In brackets after ≈: the same amount, converted by molar mass. Peptide text beside a SMILES is read from it.

Tested on: P388
Experiment: Anticancer activity against mouse P388 cells
Assay type: functional
Settings: read-out: ED50 (the source's name)

Structure (SMILES): CC[C@H](C)[C@@H]1NC(=O)[C@H](C)NC(=O)[C@H](CCSC)NC(=O)[C@H](C)NC(=O)[C@H](CC(N)=O)NC(=O)[C@H](Cc2ccccc2)NC(=O)[C@@H]2CCCN2C1=O [PHAKELLI STATIN 5] (cyclo(AIPFNAM))
- EC50: 0.23 µg/mL (≈ 0.309 µM)

Structure (SMILES): CC[C@H](C)[C@@H]1NC(=O)[C@H](Cc2ccccc2)NC(=O)[C@@H]2CCCN2C(=O)[C@H](Cc2ccccc2)NC(=O)[C@@H]2CCCN2C(=O)[C@H](CCC(N)=O)NC(=O)[C@@H]2CCCN2C(=O)[C@H](Cc2ccccc2)NC1=O [PHAKELLI STATIN 11] (cyclo(FIFPQPFP))
- EC50: 0.2 µg/mL (≈ 0.205 µM)

Structure (SMILES): CC[C@H](C)[C@@H]1NC(=O)[C@@H]2CCCN2C(=O)[C@H](Cc2ccccc2)NC(=O)[C@@H]2CCCN2C(=O)[C@H](Cc2ccc(O)cc2)NC(=O)[C@@H]2CCCN2C(=O)[C@H]([C@@H](C)CC)NC1=O [PHAKELLISTATIN 2] (cyclo(FPIIPYP))
- EC50: 0.34 µg/mL (≈ 0.411 µM)

Structure (SMILES): CC[C@H](C)[C@@H]1NC(=O)[C@@H]2CCCN2C(=O)[C@@H]2CCCN2C(=O)[C@H]([C@@H](C)CC)NC(=O)[C@H](Cc2ccc(O)cc2)NC(=O)[C@@H]2CCCN2C(=O)[C@@H]2CCCN2C(=O)[C@H](CC(C)C)NC(=O)[C@H]([C@@H](C)O)NC(=O)[C@H](Cc2ccccc2)NC1=O [PHAKELLISTATIN 12] (cyclo(FTLPPYIPPI))
- EC50: 2.8 µg/mL (≈ 2.46 µM)
